Measured values reported in patent publication US20240174617A1, “FPR2 (FORMYL PEPTIDE RECEPTOR 2)RECEPTOR AGONISTS AND THEIR USE IN THE TREATMENT OF THE AUTISM SPECTRUM DISORDER” (UNIVERSITA' DEGLI STUDI DI BARI ALDO MORO, priority 2021, published 2024).

What was measured:
Assay type in all cases: cell-based
[1] = test system: mouse microglial N9 cells; assay: cell viability (LDH assay) in microglial N9 cells; details: for LDH release activity (cytotoxic effect): basal conditions, 0.5-5 μM, 24 hours (FIG. 4); for cell mortality (LDH release), neuroprotective effect: pre-incubation 0.5-5 μM, then LPS (100 ng/mL) for 24 hours (FIG. 4)
Experimental: Study of the effect of compounds (S)-4, (S)-5, (S)-7, (R)-8, (S)-8, (S)-9, (S)-12, (S)-15 and (S)-16 on the cell viability (LDH assay) in cultures of mouse microglial N9 cells.
The neuroprotective activity of the compounds (S)-4, (S)-5, (S)-7, (R)-8, (S)-8, (S)-9, (S)-12, (S)-15 and (S)-16 was assessed by determining its effect on the cell viability both under basal conditions and following stimulation with bacterial lipopolysaccharide (LPS) toxin. The mouse microglial N9 cells were seeded in a 96-well plate (2x10^4 cells/well) by using RPMI supplemented with 1% fetal bovine serum (FBS) as culture medium. The cells were incubated for 24 hours with different concentrations of the selected compounds (0.5-5 μM) to assess the potential cytotoxic effect of the compounds. The control cells were treated with the carrier only. To quantify the cell mortality, the level of lactate dehydrogenase (LDH) release after 24 hours of treatment was determined. The supernatant of the cell cultures was taken and incubated for 20 minutes at room temperature with the appropriate mixture of reagents according to the instructions of the supplier of the assessment kit (Cytotoxicity Detection Kit, Roche, Germany). The LDH release activity was determined as conversion of lactate to pyruvate by a colorimetric test (X=490 nm, Infinite 200 PRO Detector, TECAN, Switzerland). The LDH release activity is proportional to the 25 number of damaged cells. […] Subsequently, the cells were pre-incubated with different concentrations of the selected compounds (0.5-5 μM) and then stimulated with LPS (100 ng/mL) for 24 hours. The control cells were treated with the carrier only. The cell viability at the end 30 of 24 hours was assessed as previously described.

[2] = test system: IL-1β release in mouse microglial N9 cells; assay: IL-1β release (ELISA) in microglial N9 cells
Experimental: (§1) The anti-inflammatory effect of the compounds (S)-4, (S)-7, (S)-8, (S)-9 and (S)-16 was determined by assessing its ability to affect the release of the pro-inflammatory cytokines IL-1β and TNF-α both in the cells under basal conditions and after stimulation with LPS. The mouse microglial N9 cells were seeded in a 96-well plate (2×10^4 cells/well) by using Iscove supplemented with 10% FBS as culture medium. The cells were then treated with different concentrations of the selected compounds (0.5-5 il.M) for 24 hours. The supernatant was then collected and the IL-1β and TNF-a levels were measured by using specific ELISA kits following the instructions of the supplier (R&D Systems, USA). […] Subsequently, the cells were pre-incubated with different concentrations of the selected compounds (0.5-5 μM) and then stimulated with LPS (100 ng/mL) for 24 hours. The control cells were treated with the carrier only. The IL-1β and TNF-α levels were determined as previously described. […] The specificity of the observed effect was assessed by co-incubating the cells with the FPR2 antagonist WRW4.

[3] = test system: TNF-α release in mouse microglial N9 cells; assay: TNF-α release (ELISA) in microglial N9 cells
Experimental: as §1

[4] = basal conditions, 0.5-5 μM, 24 hours (FIG. 5)
[5] = pre-incubation 0.5-5 μM, then LPS (100 ng/mL) for 24 hours (FIG. 5)
[6] = basal conditions, 0.5-5 μM, 24 hours (FIG. 6)
[7] = pre-incubation 0.5-5 μM, then LPS (100 ng/mL) for 24 hours (FIG. 6)

| SMILES | LDH release activity (cytotoxic effect) [1] | cell mortality (LDH release), neuroprotective effect [1] | IL-1β release [2, 4] | IL-1β release [2, 5] | TNF-α release [3, 6] | TNF-α release [3, 7] |
| --- | --- | --- | --- | --- | --- | --- |
| N#Cc1ccc(C[C@H](NC(=O)Nc2ccc(F)cc2)C(=O)NC2CCCCNC2=O)cc1 (stereo partly drawn) [(S)-4, (2S)-3-(4-Cyanophenyl)-2-(3-(4-fluorophenyl)ureido)-N-(2-oxoazepan-3-yl)propanamide] | do not increase the LDH release activity | reduce the cell mortality effect caused by the stimulation with LPS | do not cause increased release of the two cytokines | reduce the release of inflammatory cytokines | do not cause increased release of the two cytokines | reduce the release of inflammatory cytokines |
| N#Cc1ccc(C[C@H](NC(=O)Nc2ccc(F)cc2)C(=O)N2CCc3ccccc32)cc1 [(S)-7, (S)-1-(3-(4-Cyanophenyl)-1-(indolin-1-yl)-1-oxopropan-2-yl)-3-(4-fluorophenyl)urea] | do not increase the LDH release activity | reduce the cell mortality effect caused by the stimulation with LPS | do not cause increased release of the two cytokines | reduce the release of inflammatory cytokines | do not cause increased release of the two cytokines | reduce the release of inflammatory cytokines |
| N#Cc1ccc(C[C@H](NC(=O)Nc2ccc(F)cc2)C(=O)N2CCc3ccc(F)cc32)cc1 [(S)-8, (S)-1-(3-(4-Cyanophenyl)-1-(6-fluoroindolin-1-yl)-1-oxopropan-2-yl)-3-(4-fluorophenyl)urea] | do not increase the LDH release activity | reduce the cell mortality effect caused by the stimulation with LPS | do not cause increased release of the two cytokines | reduce the release of inflammatory cytokines | do not cause increased release of the two cytokines | reduce the release of inflammatory cytokines |
| N#Cc1ccc(C[C@H](NC(=O)Nc2ccc(F)cc2)C(=O)N2CCc3cc(F)ccc32)cc1 [(S)-9, (S)-1-(3-(4-Cyanophenyl)-1-(5-fluoroindolin-1-yl)-1-oxopropan-2-yl)-3-(4-fluorophenyl)urea] | do not increase the LDH release activity | reduce the cell mortality effect caused by the stimulation with LPS | do not cause increased release of the two cytokines | reduce the release of inflammatory cytokines | do not cause increased release of the two cytokines | reduce the release of inflammatory cytokines |
